Experimental data reported in US20140303105A1, “Primycin and components thereof for use in the treatment or prevention of infections caused by specific pathogens” (PANNONPHARMA GYÓGYSZERGYÁRTÓ ZRT., priority 2011, published 2014).
Where two headings read alike, the source gives them in different places.

Columns and labels:
S. pyogenes = conditions: by Bryskier; cited from earlier work
Diphteroides 8264 = conditions: cited from earlier work
S. aureus = conditions: by Bryskier; cited from earlier work
[1] = test system: Streptococcus simulans 7866; conditions: cited from earlier work
Escherichia coli = conditions: by Bryskier; cited from earlier work
[2] = test system: Serotype β Streptococcus 8252; conditions: cited from earlier work
[3] = test system: Staphylococcus saprophyticus 8454; conditions: cited from earlier work
B. subtilis ATCC 6633 = conditions: by Bryskier; cited from earlier work
[4] = test system: Staphylococcus aureus ATCC 25923; conditions: cited from earlier work
[5] = test system: Staphylococcus hominis 7835; conditions: cited from earlier work
Escherichia coli B 1218 = conditions: cited from earlier work
Streptococcus mitis = conditions: by Bryskier; cited from earlier work
S. aureus ATCC 25923 = conditions: by Bryskier; cited from earlier work
[6] = test system: Enterobacter cloacae B 520; conditions: cited from earlier work
Propionibacterium acnes [7] = conditions: cited from earlier work
Coryneform(s) = conditions: by Bryskier; cited from earlier work
Propionibacterium acnes [8] = conditions: by Bryskier; cited from earlier work
Staphylococcus capitis = conditions: cited from earlier work
[9] = test system: Bacillus subtilis ATCC 6633; conditions: cited from earlier work
Enterobacter cloacae = conditions: by Bryskier; cited from earlier work
[10] = test system: Staphylococcus epidermidis; conditions: by Bryskier; cited from earlier work
[11] = test system: Staphylococcus aureus 7503; conditions: cited from earlier work
[12] = test system: Staphylococcus epidermidis 7586; conditions: cited from earlier work
Streptococcus mitis 5728 = conditions: cited from earlier work
Micrococcus spp. = conditions: cited from earlier work
Micrococcus = conditions: by Bryskier; cited from earlier work
[13] = test system: Staphylococcus aureus, methicillin resistant; assay: Standard microdilution susceptibility test, clinical isolates; format: cell-based; conditions: for MIC50 / MIC90: Staphylococcus aureus
[14] = test system: Coagulase-negative Staphylococus sp., methicillin resistant; assay: as above; format: cell-based
[15] = test system: Streptococcus pneumoniae, penicillin susceptible; assay: as above; format: cell-based; conditions: for MIC50 / MIC90: Streptococcus pneumoniae
[16] = test system: Enterococcus sp., vancomycin susceptible; assay: as above; format: cell-based; conditions: for MIC50 / MIC90: Enterococcus
[17] = test system: Coagulase-negative Staphylococus sp., methicillin susceptible; assay: as above; format: cell-based
[18] = test system: Staphylococcus aureus, methicillin susceptible; assay: as above; format: cell-based; conditions: for MIC50 / MIC90: Staphylococcus aureus
[19] = test system: Streptococcus viridans sp.; assay: as above; format: cell-based; conditions: for MIC50 / MIC90: Streptococcus viridans
[20] = test system: Streptococcus pneumoniae, penicillin resistant; assay: as above; format: cell-based; conditions: for MIC50 / MIC90: Streptococcus pneumoniae
[21] = test system: Enterococcus sp., decreased vancomycin susceptibility; assay: as above; format: cell-based; conditions: 5 clinical isolates
E. casseliflavus = assay: Microdilution MIC, Enterococcus isolates with van resistance genes; format: cell-based; conditions: Enterococcus casseliflavus
Procedure: Identification and characterization of resistance patterns of these bacteria were performed by standard methods.
When forming the test groups we attached great importance to the increasing incidence of drug-resistant microbes causing therapeutic problems. Most important of them are methicillin-resistant Staphylococcus aureus (MRSA), methicillin-resistant coagulase-negative Staphylococcus spp. (MRCoNS), penicillin-resistant Streptococcus pneumoniae (pneumococcus), vancomycin-resistant Enterococcus spp. (VRE). Pneumococcus isolates represented various serotypes, VRE isolates belonged to various species. Moreover, vancomycin-resistance of VRE isolates was based on different genetic backgrounds. Antibiotic-resistant strains were also represented among international reference strains, for example methicillin-resistant Staphylococcus aureus ATCC 43300 (MRSA), Staphylococcus aureus with decreased vancomycin susceptibility ATCC 700698 and 700699 (vancomycin intermediate Staphylococcus aureus—VISA), mupirocin-resistant Staphylococcus aureus ATCC BAA1708 and vancomycin-resistant Enterococcus faecalis ATCC 51299 (VRE).
Susceptibility tests were performed according to the standard microdilution method (NCCLS (CLSI) M7-A7).
The lowest concentration at which no bacterial growth was observed after the incubation period is the Minimal Inhibitory Concentration (MIC). The MIC value is inversely proportional to the antimicrobial efficacy. MIC values of antimicrobial agents can differ by species or even by bacterial strains within species.

[22] = 10 clinical isolates, read-out: MIC 50%
[23] = 10 clinical isolates, read-out: MIC 90%
[24] = 20 clinical isolates, read-out: MIC 50%
[25] = 20 clinical isolates, read-out: MIC 90%

CC1(C)S[C@@H]2[C@H](NC(=O)[C@H](N)c3ccccc3)C(=O)N2[C@H]1C(=O)O [Ampicillin]
<0.5 mg/L: MIC (S. pyogenes) | MIC (S. aureus) | MIC [1] | MIC [2] | MIC [3] | MIC (B. subtilis ATCC 6633) | MIC [4] | MIC [5] | MIC (S. aureus ATCC 25923) | MIC (Staphylococcus capitis) | MIC [9] | MIC [10] | MIC [11] | MIC [12] | MIC (Micrococcus spp.) | MIC (Micrococcus)
2.0 mg/L: MIC (Escherichia coli) | MIC (Escherichia coli B 1218)
31.3 mg/L: MIC (Diphteroides 8264) | MIC (Coryneform(s))
1.0 mg/L: MIC (Propionibacterium acnes [7]) | MIC (Propionibacterium acnes [8])
7.8 mg/L: MIC (Streptococcus mitis) | MIC [6] | MIC (Enterobacter cloacae) | MIC (Streptococcus mitis 5728)

CC[C@H]1OC(=O)[C@H](C)[C@@H](O[C@H]2C[C@@](C)(OC)[C@@H](O)[C@H](C)O2)[C@H](C)[C@@H](O[C@@H]2O[C@H](C)C[C@H](N(C)C)[C@H]2O)[C@](C)(O)C[C@@H](C)C(=O)[C@H](C)[C@@H](O)[C@]1(C)O [Erythromycin]
7.8 mg/L: MIC [1]
> 16 mg/L: MIC50 [13, 22] | MIC90 [13, 23] | MIC90 [14, 23] | MIC90 [16, 25] | MIC90 [17, 23] | MIC90 [18, 23] | MIC90 [19, 25] | MIC90 [20, 23]
1 mg/L: MIC50 [16, 24] | MIC50 [19, 24]
0.125 mg/L: MIC50 [17, 22] | MIC50 [18, 22]
62.5 mg/L: MIC (Escherichia coli) | MIC (Escherichia coli B 1218)
>250 mg/L: MIC (Diphteroides 8264) | MIC (S. aureus) | MIC (Coryneform(s)) | MIC [11]
<0.5 mg/L: MIC (B. subtilis ATCC 6633) | MIC (Propionibacterium acnes [7]) | MIC (Propionibacterium acnes [8]) | MIC (Staphylococcus capitis) | MIC [9] | MIC [10] | MIC [12] | MIC (Micrococcus spp.) | MIC (Micrococcus)
250 mg/L: MIC [5] | MIC (Streptococcus mitis) | MIC [6] | MIC (Enterobacter cloacae) | MIC (Streptococcus mitis 5728)
0.5 mg/L: MIC (S. pyogenes) | MIC [2]
2 mg/L: MIC50 [20, 22]
0.25 mg/L: MIC50 [14, 22]
0.03 mg/L: MIC50 [15, 22] | MIC90 [15, 23]
1.0 mg/L: MIC [3] | MIC [4] | MIC (S. aureus ATCC 25923)

CN[C@H](CC(C)C)C(=O)N[C@H]1C(=O)N[C@@H](CC(N)=O)C(=O)N[C@H]2C(=O)N[C@H]3C(=O)N[C@H](C(=O)N[C@H](C(=O)O)c4cc(O)cc(O)c4-c4cc3ccc4O)[C@H](O)c3ccc(c(Cl)c3)Oc3cc2cc(c3O[C@@H]2O[C@H](CO)[C@@H](O)[C@H](O)[C@H]2O[C@H]2C[C@](C)(N)[C@H](O)[C@H](C)O2)Oc2ccc(cc2Cl)[C@H]1O [Vancomycin]
10/10: Ratio of Sensitive/Total ([13]; 10 clinical isolates) | Ratio of Sensitive/Total ([14]; 10 clinical isolates) | Ratio of Sensitive/Total ([15]; 10 clinical isolates) | Ratio of Sensitive/Total ([17]; 10 clinical isolates) | Ratio of Sensitive/Total ([18]; 10 clinical isolates) | Ratio of Sensitive/Total ([20]; 10 clinical isolates)
0.25 to 0.5 mg/L: MIC Range ([15]; 10 clinical isolates) | MIC Range ([20]; 10 clinical isolates)
20/20: Ratio of Sensitive/Total ([16]; 20 clinical isolates)
0.5 to 2 mg/L: MIC Range ([18]; 10 clinical isolates)
8 mg/L: MIC (E. casseliflavus; resistance gene van C2)
0.5 to 1 mg/L: MIC Range ([13]; 10 clinical isolates) | MIC Range ([19]; 20 clinical isolates)
1 to 4 mg/L: MIC Range ([16]; 20 clinical isolates)
1 to 2 mg/L: MIC Range ([14]; 10 clinical isolates) | MIC Range ([17]; 10 clinical isolates)
10/20: Ratio of Sensitive/Total ([19]; 20 clinical isolates)
16 mg/L: MIC (E. casseliflavus; resistance gene van C1)
0.5 mg/L: MIC50 [15] | MIC90 [15] | MIC50 [19] | MIC50 [20] | MIC90 [20]
2 mg/L: MIC50 [14] | MIC90 [14] | MIC90 [16] | MIC90 [17]
0/5: Ratio of Sensitive/Total [21]
1 mg/L: MIC50 [13] | MIC90 [13] | MIC50 [16] | MIC50 [17] | MIC50 [18] | MIC90 [18] | MIC90 [19]
